Measurements from ChEMBL document CHEMBL1148291, “Prediction of human volume of distribution values for neutral and basic drugs. 2. Extended data set and leave-class-out statistics” (J Med Chem, 2004).

Experiments:
[1] = Ionization constant (pKa); type: physicochemical
[2] = human, plasma
Description: Unbound fraction (plasma)

[3] = clinical; settings: human, in vivo
Description: Observed volume of distribution

[4] = in vitro; settings: human, plasma
Description: Unbound fraction (plasma)

Row | Compound | pKa [1] | Fu [2] | Vd [3] | fraction unbound [4] | pKa
1 | CC(CCc1ccccc1)NCC(O)c1ccc(O)c(C(N)=O)c1 (stereo not drawn) [LABETALOL] | 7.4 |  |  |  | 
2 | OCCN1CCN(CCCN2c3ccccc3Sc3ccc(Cl)cc32)CC1 [PERPHENAZINE] | 8.11 | 0.07 | 20 L/kg |  | 
3 | CC(C)NCC(O)COc1ccc(COCCOC(C)C)cc1 (stereo not drawn) [BISOPROLOL] | 9.57 |  | 3.31 L/kg | 0.7 | 
4 | C[C@]12CCC(=O)C=C1CC[C@@H]1[C@@H]2[C@@H](O)C[C@@]2(C)[C@H]1CC[C@]2(O)C(=O)CO [HYDROCORTISONE] |  |  | 0.44 L/kg | 0.09 | Not Active
5 | CNCCC=C1c2ccccc2CCc2ccccc21 [NORTRIPTYLINE] | 10.1 |  | 19.1 L/kg |  | 
6 | CC(C)NCC(O)COc1ccc(CCOCC2CC2)cc1 (stereo not drawn) [BETAXOLOL] | 9.21 |  | 6.08 L/kg |  | 
7 | C#CCCCC(=O)c1cc(C(C)(C)C)c(O)c(C(C)(C)C)c1 [TEBUFELONE] |  |  |  | 0.0007 | Not Active
8 | Cc1ccccc1OCC(O)CNCCOc1ccc(C(N)=O)cc1 (stereo not drawn) [TOLAMOLOL] | 7.9 |  | 3.2 L/kg | 0.09 | 
9 | CC(C)NCC(O)c1ccc(NS(C)(=O)=O)cc1 (stereo not drawn) [SOTALOL] | 9.76 |  | 0.9 L/kg | 1 | 
10 | CC(C)(C)NCC(O)COc1cccc2c1C[C@H](O)[C@H](O)C2 (stereo partly drawn) [NADOLOL] |  | 0.7 | 1.94 L/kg |  | 
11 | C[C@@H](c1ncncc1F)[C@](O)(Cn1cncn1)c1ccc(F)cc1F [VORICONAZOLE] |  |  | 4.6 L/kg | 0.42 | Not Active
12 | OC(CNCC(O)C1CCc2cc(F)ccc2O1)C1CCc2cc(F)ccc2O1 (stereo not drawn) [NEBIVOLOL] | 8.22 |  | 11.2 L/kg | 0.02 | 
13 | O=C1CN=C(c2ccccn2)c2cc(Br)ccc2N1 [BROMAZEPAM] |  |  |  | 0.39 | Not Active
14 | CCN(C)C(=O)Oc1cccc([C@H](C)N(C)C)c1 [RIVASTIGMINE] | 8.99 |  | 2.2 L/kg | 0.6 | 
15 | CN1CCN2c3ncccc3Cc3ccccc3C2C1 (stereo not drawn) [MIRTAZAPINE] | 7.3 |  | 4.8 L/kg |  | 
16 | C[N+](C)([O-])CCC=C1c2ccccc2CCc2ccccc21 [AMITRIPTYLINOXIDE] |  |  | 1.2 L/kg | 0.2 | Not Active
17 | CC(CN(C)C)CN1c2ccccc2CCc2ccccc21 (stereo not drawn) [TRIMIPRAMINE] | 9.24 |  | 31 L/kg | 0.05 | 
18 | CN(C)CCCN1c2ccccc2Sc2ccccc21 [PROMAZINE] | 9.28 |  | 7.5 L/kg | 0.11 | 
19 | CC(C)(C)NC[C@H](O)COc1nsnc1N1CCOCC1 [TIMOLOL] | 8.8 |  | 3.5 L/kg |  | 
20 | CNCC[C@@H](Oc1ccccc1C)c1ccccc1 [ATOMOXETINE] | 10.1 |  | 0.85 L/kg |  | 
21 | CCN(CC)CCCC(C)Nc1c2ccc(Cl)cc2nc2ccc(OC)cc12 (stereo not drawn) [QUINACRINE] | 7.73 |  | 124 L/kg |  | 
22 | Cc1ccc(O)c(C(CCN(C(C)C)C(C)C)c2ccccc2)c1 (single isomer, unassigned) [TOLTERODINE] | 9.8 |  |  |  | 
